Among the data in ChEMBL document CHEMBL3297701, “Functionalization, cyclization and antiviral activity of A-secotriterpenoids” (Eur J Med Chem, 2014) are EC50 and selectivity ratio values, retold here.

A short description of data set [1]: microbe, parasite or virus in culture. Format: functional, Influenza A virus (A/ts1/1/A/FPV/Rostock/1934(H7N1)). The settings on record: Influenza A virus, 36 h.
Another data set is described as follows: in vitro. The note with it: chicken, primary chicken embryo cells.
Data set [2] relates to Human immunodeficiency virus 1. In words: Antiviral activity against HIV-1 zmb infected in human MT-4 cells after 72 hrs by MTT assay. It is filed as functional, organism-based, MT4. A general note: Tetrazolium dyes change colour on reduction, which living cells bring about.
The nature of data set [3]: Selectivity ratio of MTD for human MT-4 cells to EC50 for HIV-1 zmb infected in human MT-4 cells. Format: ADME, cell-based, MT4.
Setting [4] is: Human immunodeficiency virus 1, zmb, MT4, 72 h, read-out: EC50.

What is called EC50 is the concentration giving half of the maximal effect. The molecule `C=C(C)[C@@H]1CC[C@]2(C(=O)O)CC[C@]3(C)[C@H](CC[C@@H]4[C@@](C)(CC#N)[C@H](C(C)(C)C=O)CC[C@]43C)[C@@H]12` registered an EC50 in data set [1] of 7.7 µM. Besides, the selectivity ratio in the data set “in vitro” was found to be 3.5.

As for `C=C(C)[C@@H]1CC[C@]2(C(=O)OC)CC[C@]3(C)[C@H](CC[C@@H]4[C@@]5(C)C(C#N)=CC(C)(C)[C@@H]5CC[C@]43C)[C@@H]12`, the EC50 in data set [2] (setting [4]) is 50.5 µM. In addition, in data set [3], the selectivity ratio came to 3.2.

As for `CC1(C)C=C(C#N)[C@]2(C)[C@H]3CC[C@@H]4[C@H]5[C@H]6OC[C@@]5(CCC6(C)C)CC[C@@]4(C)[C@]3(C)CC[C@@H]12`, the EC50 entry in data set [2] (mt4) was “Not Active”.

In the case of `C=C(C)[C@@H]1CC[C@]2(C(=O)O)CC[C@]3(C)[C@H](CC[C@@H]4[C@@](C)(CC#N)[C@H](C(C)(C)/C=N/O)CC[C@]43C)[C@@H]12`, the half-maximal effective concentration (EC50) in data set [1] is 18.2 µM; in data set [2] (setting [4]), 0.06 µM. For the same molecule, the selectivity ratio amounted to 5.7 in the data set “in vitro” and 50 in data set [3].

As for `C=C(C)[C@@H]1CC[C@]2(C(=O)OC)CC[C@]3(C)[C@H](CC[C@@H]4[C@@](C)(CC#N)[C@H](C(C)(C)/C=N/O)CC[C@]43C)[C@@H]12`, the EC50 in data set [1] is 22.7 µM; in data set [2] (mt4) it was “Not Active”. Besides, in “in vitro”, the selectivity ratio worked out at 35.4.

`CC(C)(/C=N/O)[C@@H]1CC[C@]2(C)[C@H](CC[C@@H]3[C@H]4[C@H]5OC[C@@]4(CCC5(C)C)CC[C@]32C)[C@@]1(C)CC#N`: the EC50 in data set [1] was 58.7 µM. For the same molecule, the selectivity ratio in “in vitro” turned out to be 7.2.

In data set [1], `C/N=C/C(C)(C)[C@@H]1CC[C@]2(C)[C@H](C(=O)C=C3[C@@H]4C[C@@](C)(C(=O)OC)CC[C@]4(C)CC[C@]32C)[C@@]1(C)CC#N` came in with an EC50 of 51.9 µM. In addition, the selectivity ratio in “in vitro” was found to be 15.1.

Turning to `C=C(C)[C@@H]1CC[C@]2(C(=O)OC)CC[C@]3(C)[C@H](CC[C@@H]4[C@@]5(C)C(C#N)=C(N)C(C)(C)[C@@H]5CC[C@]43C)[C@@H]12`, the concentration giving a half-maximal response (EC50) entry in data set [2] (mt4) is listed as “Not Active”.

For the molecule `CC1(C)CC[C@]23CC[C@]4(C)[C@H](CC[C@@H]5[C@@]6(C)C(C#N)=C(N)C(C)(C)[C@@H]6CC[C@]54C)[C@H]2[C@H]1OC3`, the EC50 entry in data set [2] (mt4) was “Not Active”.

As to `C=C(C)[C@@H]1CC[C@]2(C(=O)O)CC[C@]3(C)[C@H](CC[C@@H]4[C@@]5(C)C/C(=N\O)C(=O)C(C)(C)[C@@H]5CC[C@]43C)[C@@H]12`, the values for the EC50 in data set [1] and in data set [2] (setting [4]) were 12.9 µM and 0.06 µM, respectively. Besides, the selectivity ratio in “in vitro” is 64.1; in data set [3], 51.5.

`C=C(C)[C@@H]1CC[C@]2(C(=O)OC)CC[C@]3(C)[C@H](CC[C@@H]4[C@@]5(C)C/C(=N\O)C(=O)C(C)(C)[C@@H]5CC[C@]43C)[C@@H]12` gave a 50% effective concentration (EC50) in data set [1] of 98 µM. Besides, the selectivity ratio in the data set “in vitro” worked out at 4.1.

As to `CC1(C)CC[C@]23CC[C@]4(C)[C@H](CC[C@@H]5[C@@]6(C)C/C(=N\O)C(=O)C(C)(C)[C@@H]6CC[C@]54C)[C@H]2[C@H]1OC3`, the concentration giving a half-maximal response (EC50) in data set [1] was over 100 µM.

As for `C=C(C)[C@@H]1CC[C@]2(C(=O)O)CC[C@]3(C)[C@H](CC[C@@H]4[C@@]5(C)C/C(=N\O)[C@H](O)C(C)(C)[C@@H]5CC[C@]43C)[C@@H]12`, the half-maximal effective concentration (EC50) in data set [1] came to 31.5 µM. In addition, the selectivity ratio in the data set “in vitro” was 6.8.

Regarding `C=C(C)[C@@H]1CC[C@]2(C(=O)OC)CC[C@]3(C)[C@H](CC[C@@H]4[C@@]5(C)C/C(=N\O)[C@H](O)C(C)(C)[C@@H]5CC[C@]43C)[C@@H]12`, the EC50 in data set [1] is over 100 µM.

In turn, `CC1(C)CC[C@]23CC[C@]4(C)[C@H](CC[C@@H]5[C@@]6(C)C/C(=N\O)[C@H](O)C(C)(C)[C@@H]6CC[C@]54C)[C@H]2[C@H]1OC3` displayed a 50% effective concentration (EC50) in data set [1] of over 100 µM.

For `COC(=O)[C@@]1(C)CCC2(C)CC[C@]3(C)C(=CC(=O)[C@@H]4[C@@](C)(CC#N)[C@H](C(C)(C)C=O)CC[C@]43C)[C@@H]2C1` (single isomer, unassigned), a half-maximal response in data set [1] (EC50) required 53.5 µM. In addition, the selectivity ratio in the data set “in vitro” was 15.1.

In data set [1], `COC(=O)[C@@]1(C)CCC2(C)CC[C@]3(C)C(=CC(=O)[C@@H]4[C@@]5(C)C/C(=N\O)C(=O)C(C)(C)[C@@H]5CC[C@]43C)[C@@H]2C1` (single isomer, unassigned) displayed an EC50 of over 100 µM.

`COC(=O)[C@@]1(C)CCC2(C)CC[C@]3(C)C(=CC(=O)[C@@H]4[C@@]5(C)C/C(=N\O)[C@H](O)C(C)(C)[C@@H]5CC[C@]43C)[C@@H]2C1` (single isomer, unassigned) yielded a concentration for a half-maximal effect (EC50) in data set [1] of 57.2 µM. In “in vitro”, the selectivity ratio came to 3.4.
